These are literature values, as cited in patent US11701406B2 (The Board of Trustees of the Leland Stanford Junior …, priority 2017, dated 2023).

This data set deals with T1, NEDD8 activating enzyme (NAE) (Homo sapiens, UniProt Q8TBC4).
T1 sequence (Q8TBC4 2-463 limits assumed): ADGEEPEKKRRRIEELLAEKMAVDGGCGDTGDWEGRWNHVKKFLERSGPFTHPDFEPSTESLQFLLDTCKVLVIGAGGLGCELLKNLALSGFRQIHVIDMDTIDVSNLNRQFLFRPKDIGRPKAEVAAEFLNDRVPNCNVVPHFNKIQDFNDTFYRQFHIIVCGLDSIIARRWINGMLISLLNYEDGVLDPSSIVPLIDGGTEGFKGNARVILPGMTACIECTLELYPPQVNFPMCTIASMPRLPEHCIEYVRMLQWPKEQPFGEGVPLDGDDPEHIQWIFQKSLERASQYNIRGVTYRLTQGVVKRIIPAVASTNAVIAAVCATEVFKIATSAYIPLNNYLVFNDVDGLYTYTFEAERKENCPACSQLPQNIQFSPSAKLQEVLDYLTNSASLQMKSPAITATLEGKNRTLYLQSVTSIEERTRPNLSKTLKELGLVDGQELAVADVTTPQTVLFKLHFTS
T1 sequence (Q13564 2-534 partner limits assumed): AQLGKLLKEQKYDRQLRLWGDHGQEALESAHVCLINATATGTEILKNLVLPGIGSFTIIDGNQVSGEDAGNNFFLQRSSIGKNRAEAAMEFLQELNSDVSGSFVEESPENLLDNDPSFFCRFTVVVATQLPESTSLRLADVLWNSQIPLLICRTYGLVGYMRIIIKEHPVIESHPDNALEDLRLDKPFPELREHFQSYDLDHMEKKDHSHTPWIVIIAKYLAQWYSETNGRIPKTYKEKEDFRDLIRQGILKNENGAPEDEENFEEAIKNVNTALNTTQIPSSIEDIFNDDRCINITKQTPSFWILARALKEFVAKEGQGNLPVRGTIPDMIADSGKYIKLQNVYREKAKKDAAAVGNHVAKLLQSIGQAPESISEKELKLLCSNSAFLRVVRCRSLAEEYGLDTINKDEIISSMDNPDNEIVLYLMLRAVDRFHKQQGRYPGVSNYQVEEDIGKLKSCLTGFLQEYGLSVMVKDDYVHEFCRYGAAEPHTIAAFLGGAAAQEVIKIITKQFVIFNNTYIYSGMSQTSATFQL
Particulars: read-out: IC50 (Activity, Inhibitors of NAE).
Take `Nc1ccc(SCC(=O)Nc2ccc3nc(NC(=O)c4ccc(C(F)(F)F)cc4)sc3c2)cc1`: the IC50 was 100 nM.

Consider `Clc1ccc(CCNC2CCN(Cc3ccccc3)CC2)c(Cl)c1` [M22], for which the IC50 was 9000 nM.

For `CCN1CCN(C(=O)N[C@@H](C(=O)N[C@@H]2C(=O)N3C2SC(C)(C)[C@@H]3C(=O)O)c2ccccc2)C(=O)C1=O` (stereo partly drawn) [Piperacillin], the IC50 was 1000 nM.

As to `CN1CCOc2c1ccc(F)c2C#Cc1cn([C@@H]2O[C@@H](CCS(N)(=O)=O)[C@@H](O)[C@H]2O)c2ncnc(N)c12` [TAS 1], the IC50 is 1 nM.

As for `CN1CCOc2c1ccc(F)c2C#Cc1cn([C@@H]2C[C@@H](CCS(N)(=O)=O)[C@@H](O)[C@H]2O)c2ncnc(N)c12` [TAS 2], the IC50 was 20 nM.

Regarding MLN7243, the IC50 was 1 nM.

A word on the IC50: it is the point on the concentration scale where inhibition reaches its midpoint.
